Experimental data: article PMC6767265, “Cytotoxicity and Apoptosis Induction of Coumarins and Carbazole Alkaloids from Clausena Harmandiana” (Molecules, 2019)
Several values for one entry are separate records, joined by “and”; a condition that tells them apart may be missing. Identical values can stand only once. Marks after values point to notes of the source that are not given here.

Test system: human colon carcinoma cell line (HCT116)
Assay: Cell viability assay (neutral red), HCT116
Assay type: cell-based
Set-up: key to IC50 HCT116: inactive: Inactive means cell viability percentage was >50% at the maximum concentration used (>100 µM for the compound or >100 µg/mL for the extract)
Settings: 24 h, neutral red; inactive = viability >50% at >100 µM
Protocol: (§1) The human lung adenocarcinoma cell line (SK-LU-1), human colon carcinoma cell line (HCT116), human hepatocellular carcinoma cell line (HepG2) and noncancerous African green monkey kidney epithelial cell line (Vero) were cultured in Dulbecco’s modified Eagle’s medium (DMEM) supplemented with 10% fetal bovine serum, 100 IU/mL penicillin and […] streptomycin. Cells were incubated at 37 °C with 95% air and 5% CO2 until they reached approximately 80% confluence before use.
(§2) Cell viability assay was assessed by neutral red (NR). Briefly, cells at a density of 3 × 10^4 cells/well were seeded in 96-wells plate and incubated for 24 h. […] After incubation time, cells were washed with PBS. NR reagent (50 µg/mL) was added to each well and incubated for another 2 h. After that, cells were washed with PBS and lyzed with 0.33% HCl in isopropanol. Cisplatin was used as a positive control. The absorbance of NR was detected using microplate reader (Tecan, Lyon, France) at 520 nm. The percentage of cell viability was calculated vis-à-vis the untreated cells and cytotoxicity was expressed as the inhibition concentration at 50% (IC50). The final DMSO concentration was not exceed 0.1%v/v to lessen the cytotoxicity (<10%).

SMILES	IC50 HCT116	IC50 [µM]
COc1ccc2c(c1)[nH]c1c(CC=C(C)C)c(O)c(C=O)cc12 [7-Methoxyheptaphylline (7), 7-methoxyheptaphylline]	inactive^bE	
COc1ccc2c(c1)[nH]c1cc(O)c(C=O)cc12 [7-Methoxymukonal (5), 7-methoxymukonal]	inactive^bE	
N.N.[Cl][Pt][Cl] [Cisplatin, reference compound]		71.9 ± 2.7

Same assay, conditions: Homo sapiens, HCT-116; 24 h, neutral red; inactive = viability >50% at >100 µM

SMILES	IC50 [µM]
C=CC(C)(C)c1cc2c(O)c3c(c(C(C)(C)C=C)c2oc1=O)OC(C)(C)C=C3 [Clausarin (2), clausarin]	44.9 ± 1.4

Same assay, conditions: cancer cells over noncancerous Vero cells

SMILES	Selectivity Index HCT116
COc1ccc2c(c1)[nH]c1c(CC=C(C)C)c(O)c(C=O)cc12 [7-Methoxyheptaphylline (7), 7-methoxyheptaphylline]	(1.0)
COc1ccc2c(c1)[nH]c1cc(O)c(C=O)cc12 [7-Methoxymukonal (5), 7-methoxymukonal]	(1.0)
N.N.[Cl][Pt][Cl] [Cisplatin, reference compound]	(1.4)
C=CC(C)(C)c1cc2c(O)c3c(c(C(C)(C)C=C)c2oc1=O)OC(C)(C)C=C3 [Clausarin (2), clausarin]	(1.7)

Test system: HepG2 cells
Assay: Mode of cell death by Annexin V-FITC/PI staining, flow cytometry
Assay type: cell-based, human
Settings: HepG2, 1 × IC50, 12 h
Description: In this study, double staining of cells by Annexin V-FITC/propidium iodide (PI) was used to differentiate apoptosis from necrosis. The stages of apoptosis can be distinguished from necrotic cell death by flow cytometry using Annexin V-FITC/PI double staining of HepG2 cells. During the early stages of apoptosis, the phosphatidylserine comprising the cell membrane will externalize to be exposed to the surface of apoptotic cells and bind with Annexin V-FITC, showing a cell dot plot in Quadrant 4. The cell dot plot is positively stained with Annexin V-FITC but negatively stained with PI (+/−). When cells are damaged or undergo a late state of apoptosis, cells will lose their membrane integrity, including nuclear membrane integrity, so that PI can pass through the nuclear membrane, showing a cell dot plot in Quadrant 2. […] During cell undergo necrotic cell death, cells are stained and appear in Quadrant 1 (−/+). Normal cells are not stained and appear in Quadrant 3 (−/−). The total apoptotic cell death percentage was counted from the percentage of cells undergoing an early state and late state of apoptosis gathering from Quadrants 4 and 2, while the necrotic cell death percentage was counted from Quadrant 1, as shown in Figure 2.
The Annexin V-FITC and PI apoptosis assay kit (BioLegend, San Diego, CA, USA) was used to determine mode of cell death as per previous report. The HepG2 cells (8 × 10^5 cell/mL) were seeded in a 24-well plate and incubated for 24 h. The compounds at a concentration of 1 x IC50 and 2 x IC50 were added and incubated for 12 and 24 h. After that, cells were washed with PBS and cold BioLegend’s cell staining buffer followed by staining with Annexin V-FITC and PI and cell were incubated in the dark for 15 min. The cells were analyzed by flow cytometry (BD FACSCanto II, BD Biosciences, San Jose, CA, USA) and the percentage of cells in different populations were calculated with FACSDiva software.

SMILES	apoptotic cell death percentage (total, Quadrants 4 and 2) [%]	necrotic cell death percentage (Q1, Annexin V-FITC/PI −/+) [%]
C=CC(C)(C)c1cc2c(O)c3c(c(C(C)(C)C=C)c2oc1=O)OC(C)(C)C=C3 [Clausarin (2), clausarin]	44.0 ± 1.2	6.8 ± 1.4

Same assay, conditions: HepG2, 2 × IC50, 12 h

SMILES	necrotic cell death percentage (Q1, Annexin V-FITC/PI −/+) [%]
C=CC(C)(C)c1cc2c(O)c3c(c(C(C)(C)C=C)c2oc1=O)OC(C)(C)C=C3 [Clausarin (2), clausarin]	27.4 ± 3.8

Test system: noncancerous African green monkey kidney epithelial cell line (Vero)
Assay: Cell viability assay (neutral red), Vero
Assay type: cell-based
Set-up: key to IC50 Vero: inactive: Inactive means cell viability percentage was >50% at the maximum concentration used (>100 µM for the compound or >100 µg/mL for the extract)
Settings: 24 h, inactive = viability >50% at >100 µM
Protocol: as §1
(§3) Cell viability assay was assessed by neutral red (NR). Briefly, cells at a density of 3 × 10^4 cells/well were seeded in 96-wells plate and incubated for 24 h. The sample at concentration, ranging from 10 to 500 µM, were added and incubated for 24 h. After incubation time, cells were washed with PBS. NR reagent (50 µg/mL) was added to each well and incubated for another 2 h. After that, cells were washed with PBS and lyzed with 0.33% HCl in isopropanol. Cisplatin was used as a positive control. The absorbance of NR was detected using microplate reader (Tecan, Lyon, France) at 520 nm. The percentage of cell viability was calculated vis-à-vis the untreated cells and cytotoxicity was expressed as the inhibition concentration at 50% (IC50). The final DMSO concentration was not exceed 0.1%v/v to lessen the cytotoxicity (<10%).

SMILES	IC50 Vero
COc1ccc2c(c1)[nH]c1c(CC=C(C)C)c(O)c(C=O)cc12 [7-Methoxyheptaphylline (7), 7-methoxyheptaphylline]	inactive^bB
COc1ccc2c(c1)[nH]c1cc(O)c(C=O)cc12 [7-Methoxymukonal (5), 7-methoxymukonal]	inactive^bB
N.N.[Cl][Pt][Cl] [Cisplatin, reference compound]	inactive^dB

Same assay, conditions: Chlorocebus sabaeus, Vero, 24 h, inactive = viability >50% at >100 µM

SMILES	IC50 [µM]
C=CC(C)(C)c1cc2c(O)c3c(c(C(C)(C)C=C)c2oc1=O)OC(C)(C)C=C3 [Clausarin (2), clausarin]	78.2 ± 3

Test system: human hepatocellular carcinoma cell line (HepG2)
Assay: Cell viability assay (neutral red), HepG2
Assay type: cell-based
Settings: 24 h, neutral red
Protocol: as §1, §3

SMILES	IC50 [µM]
N.N.[Cl][Pt][Cl] [Cisplatin, reference compound]	21.8 ± 3

Same assay, conditions: Homo sapiens, HepG2; 24 h, neutral red

SMILES	IC50 [µM]
COc1ccc2c(c1)[nH]c1c(CC=C(C)C)c(O)c(C=O)cc12 [7-Methoxyheptaphylline (7), 7-methoxyheptaphylline]	65.5 ± 2.7
COc1ccc2c(c1)[nH]c1cc(O)c(C=O)cc12 [7-Methoxymukonal (5), 7-methoxymukonal]	82.6 ± 2.8
C=CC(C)(C)c1cc2c(O)c3c(c(C(C)(C)C=C)c2oc1=O)OC(C)(C)C=C3 [Clausarin (2), clausarin]	17.6 ± 2.1

Same assay, conditions: cancer cells over noncancerous Vero cells

SMILES	Selectivity Index HepG2
COc1ccc2c(c1)[nH]c1c(CC=C(C)C)c(O)c(C=O)cc12 [7-Methoxyheptaphylline (7), 7-methoxyheptaphylline]	(1.5)
COc1ccc2c(c1)[nH]c1cc(O)c(C=O)cc12 [7-Methoxymukonal (5), 7-methoxymukonal]	(1.2)
N.N.[Cl][Pt][Cl] [Cisplatin, reference compound]	(4.6)
C=CC(C)(C)c1cc2c(O)c3c(c(C(C)(C)C=C)c2oc1=O)OC(C)(C)C=C3 [Clausarin (2), clausarin]	(4.4)

Test system: not listed separately
Assay: Ferric reducing antioxidant power (FRAP) assay
Assay type: biochemical
Settings: 100 µM compound
Protocol: FRAP assay was performed following the pervious study with slight modification. FRAP reagent was prepared by mixing 300 mM acetate buffer (pH 3.6), 20 mM ferric chloride solution and 10 mM TPTZ solution in the ratio of 10:1:1 and incubated at 37 °C for 30 min. Then, 150 µL of FRAP reagent was added with 50 µL of the sample (100 µM of isolated compounds or 100 µg/mL of the CH2Cl2 crude extract) in each well of the 96-wells plate. The absorbance was measured at 595 nm using microplate reader (Tecan, Lyon, France). Trolox was used as a positive control. The FRAP value was calculated from the linear equation between the absorbance and ferrous sulfate standard curves (y = 0.0548x + 0.0213, R^2 = 0.9989) and expressed as µM of ferrous sulfate equivalents.

SMILES	FRAP Value
COc1ccc2c(c1)[nH]c1c(CC=C(C)C)c(O)c(C=O)cc12 [7-Methoxyheptaphylline (7), 7-methoxyheptaphylline]	1.4 ± 0.1^g µM FeSO4 Equivalents
COc1ccc2c(c1)[nH]c1cc(O)c(C=O)cc12 [7-Methoxymukonal (5), 7-methoxymukonal]	47.0 ± 0.6^a µM FeSO4 Equivalents
C=CC(C)(C)c1cc2c(O)c3c(c(C(C)(C)C=C)c2oc1=O)OC(C)(C)C=C3 [Clausarin (2), clausarin]	45.2 ± 1.0^b µM FeSO4 Equivalents

Same assay, conditions: 100 µM compound; listed as 7-methoxyheptaphylline

SMILES	FRAP Value [µM FeSO4 Equivalents]
COc1ccc2c(c1)[nH]c1c(CC=C(C)C)c(O)c(C=O)cc12 [7-Methoxyheptaphylline (7), 7-methoxyheptaphylline]	1.4

Same assay, conditions: 100 µM compound; listed as 7-methoxymukonal

SMILES	FRAP Value [µM FeSO4 Equivalents]
COc1ccc2c(c1)[nH]c1cc(O)c(C=O)cc12 [7-Methoxymukonal (5), 7-methoxymukonal]	47.0

Same assay, conditions: 100 µM compound; listed as clausarin

SMILES	FRAP Value
C=CC(C)(C)c1cc2c(O)c3c(c(C(C)(C)C=C)c2oc1=O)OC(C)(C)C=C3 [Clausarin (2), clausarin]	45.2 ± 1.0 µM FeSO4 Equivalents and 45.2 µM FeSO4 Equivalents

Test system: human lung adenocarcinoma cell line (SK-LU-1)
Assay: Cell viability assay (neutral red), SK-LU-1
Assay type: cell-based
Set-up: key to IC50 SK-LU-1: inactive: Inactive means cell viability percentage was >50% at the maximum concentration used (>100 µM for the compound or >100 µg/mL for the extract)
Settings: 24 h, neutral red; inactive = viability >50% at >100 µM
Protocol: as §1, §2

SMILES	IC50 SK-LU-1	IC50 [µM]
COc1ccc2c(c1)[nH]c1c(CC=C(C)C)c(O)c(C=O)cc12 [7-Methoxyheptaphylline (7), 7-methoxyheptaphylline]	inactive^bF	
COc1ccc2c(c1)[nH]c1cc(O)c(C=O)cc12 [7-Methoxymukonal (5), 7-methoxymukonal]	inactive^bF	
N.N.[Cl][Pt][Cl] [Cisplatin, reference compound]		42.7 ± 1.9

Same assay, conditions: Homo sapiens, SK-LU-1; 24 h, neutral red; inactive = viability >50% at >100 µM

SMILES	IC50 [µM]
C=CC(C)(C)c1cc2c(O)c3c(c(C(C)(C)C=C)c2oc1=O)OC(C)(C)C=C3 [Clausarin (2), clausarin]	6.9 ± 1.6

Same assay, conditions: cancer cells over noncancerous Vero cells

SMILES	Selectivity Index SK-LU-1
COc1ccc2c(c1)[nH]c1c(CC=C(C)C)c(O)c(C=O)cc12 [7-Methoxyheptaphylline (7), 7-methoxyheptaphylline]	1.0)
COc1ccc2c(c1)[nH]c1cc(O)c(C=O)cc12 [7-Methoxymukonal (5), 7-methoxymukonal]	(1.0)
N.N.[Cl][Pt][Cl] [Cisplatin, reference compound]	(2.3)
C=CC(C)(C)c1cc2c(O)c3c(c(C(C)(C)C=C)c2oc1=O)OC(C)(C)C=C3 [Clausarin (2), clausarin]	(11.3)

Test system: not listed separately
Assay: DPPH radical scavenging assay
Assay type: biochemical
Settings: 30 min in the dark, absorbance 517 nm
Protocol: The 2,2–diphenyl–1–picrylhydrazyl (DPPH) radical scavenging assay was conducted as per the previous method. Briefly, the stock solutions of 10 mM DPPH was prepared in methanol. The DPPH was mixed with samples (100 µL each) at various concentrations (1−500 µM) in 96 wells plate and incubated for 30 min in a dark condition. The absorbance of DPPH radical was measured at 517 nm using a microplate reader (Tecan, Lyon, France). Trolox was used as a positive control. The half maximum inhibitory concentration (IC50 value) was calculated from the plot of percentage of DDPH radical inhibition versus concentration of samples using the following formula: % DPPH radical inhibition = [(Ab − As)/Ab] × 100,(1) where Ab = absorbance of the reagent blank, and As = absorbance of the sample. Each experiment was done in five replications and results are expressed as average values.

SMILES	DPPH Assay IC50	IC50 [µM]
COc1ccc2c(c1)[nH]c1c(CC=C(C)C)c(O)c(C=O)cc12 [7-Methoxyheptaphylline (7), 7-methoxyheptaphylline]	96.8 ± 1.1^g µg/mL	313 ± 3.4
COc1ccc2c(c1)[nH]c1cc(O)c(C=O)cc12 [7-Methoxymukonal (5), 7-methoxymukonal]	6.8 ± 0.5^b µg/mL	26.2 ± 2
C=CC(C)(C)c1cc2c(O)c3c(c(C(C)(C)C=C)c2oc1=O)OC(C)(C)C=C3 [Clausarin (2), clausarin]	2.3 ± 0.3^a µg/mL	6 ± 0.8

Same assay, conditions: classified from IC50 in µg/mL

SMILES	DPPH radical scavenging activity classification
COc1ccc2c(c1)[nH]c1c(CC=C(C)C)c(O)c(C=O)cc12 [7-Methoxyheptaphylline (7), 7-methoxyheptaphylline]	low radical scavenger
COc1ccc2c(c1)[nH]c1cc(O)c(C=O)cc12 [7-Methoxymukonal (5), 7-methoxymukonal]	moderate radical scavenger
C=CC(C)(C)c1cc2c(O)c3c(c(C(C)(C)C=C)c2oc1=O)OC(C)(C)C=C3 [Clausarin (2), clausarin]	high radical scavenger
